The source made the active and inactive calls. The rule behind the calls is not given here.
Tests used:
HCT-116 [1] = assay: Cytotoxicity against human HCT116 cells at 10 uM after 48 hrs by CytoTox-96 non-radioactive assay; assay type: functional, cell-based
HT-29 [2] = assay: Cytotoxicity against human HT-29 cells at 10 uM after 48 hrs by CytoTox-96 non-radioactive assay; assay type: functional, cell-based
HCT-116 [3] = assay: Cytotoxicity against human HCT116 cells at 1 to 10 uM after 48 hrs by CytoTox-96 non-radioactive assay; assay type: functional, cell-based
HT-29 [4] = assay: Cytotoxicity against human HT-29 cells at 1 to 10 uM after 48 hrs by CytoTox-96 non-radioactive assay; assay type: functional, cell-based
HCT-116 [5] = assay: Anticlonogenic activity against human HCT116 cells assessed as inhibition of colony formation after 4 to 5 days by crystal violet staining-based assay; assay type: functional, cell-based
HT-29 [6] = assay: Anticlonogenic activity against human HT-29 cells assessed as inhibition of colony formation after 4 to 5 days by crystal violet staining-based assay; assay type: functional, cell-based
HCT-116 [7] = assay: Cell cycle arrest in human HCT116 cells assessed as accumulation at G0/G1 phase at 10 uM after 48 hrs (reference value: 38.5%); assay type: functional
HCT-116 [8] = assay: Cell cycle arrest in human HCT116 cells assessed as accumulation at S phase at 1 uM after 48 hrs (reference value: 10.9%); assay type: functional
HCT-116 [9] = assay: Cell cycle arrest in human HCT116 cells assessed as accumulation at G2/M phase at 10 uM after 48 hrs (reference value: 21.5%); assay type: functional
HT-29 [10] = assay: Cell cycle arrest in human HT-29 cells assessed as accumulation at G0/G1 phase at 1 uM after 48 hrs (reference value: 53.9%); assay type: functional
HT-29 [11] = assay: Cell cycle arrest in human HT-29 cells assessed as accumulation at G0/G1 phase at 2.5 uM after 48 hrs (reference value: 53.9%); assay type: functional
HT-29 [12] = assay: Cell cycle arrest in human HT-29 cells assessed as accumulation at G0/G1 phase at 5 uM after 48 hrs (reference value: 53.9%); assay type: functional
HT-29 [13] = assay: Cell cycle arrest in human HT-29 cells assessed as accumulation at S phase at 5 uM after 48 hrs (reference value: 9.7%); assay type: functional
HT-29 [14] = assay: Cell cycle arrest in human HT-29 cells assessed as accumulation at G2/M phase at 1 uM after 48 hrs (reference value: 14.7%); assay type: functional
HT-29 [15] = assay: Cell cycle arrest in human HT-29 cells assessed as accumulation at G2/M phase at 2.5 uM after 48 hrs (reference value: 14.7%); assay type: functional
HT-29 [16] = assay: Cell cycle arrest in human HT-29 cells assessed as accumulation at G2/M phase at 10 uM after 48 hrs (reference value: 14.7%); assay type: functional
HT-29 [17] = assay: Cell cycle arrest in human HT-29 cells assessed as accumulation at subG1 phase after 48 hrs; assay type: functional, cell-based
HCT-116 [18] = assay: Induction of apoptosis in human HCT116 cells assessed as live cells at 1 uM after 48 hrs by Annexin-V and dead cell assay (reference value: 96.75%); assay type: functional
HCT-116 [19] = assay: Induction of apoptosis in human HCT116 cells assessed as live cells at 2.5 uM after 48 hrs by Annexin-V and dead cell assay (reference value: 96.75%); assay type: functional
HCT-116 [20] = assay: Induction of apoptosis in human HCT116 cells assessed as live cells at 10 uM after 48 hrs by Annexin-V and dead cell assay (reference value: 96.75%); assay type: functional
HCT-116 [21] = assay: Induction of apoptosis in human HCT116 cells assessed as early apoptotic cells at 2.5 uM after 48 hrs by Annexin-V and dead cell assay (reference value: 1.70%); assay type: functional
HCT-116 [22] = assay: Induction of apoptosis in human HCT116 cells assessed as early apoptotic cells at 5 uM after 48 hrs by Annexin-V and dead cell assay (reference value: 1.70%); assay type: functional
HCT-116 [23] = assay: Induction of apoptosis in human HCT116 cells assessed as late apoptotic cells at 2.5 uM after 48 hrs by Annexin-V and dead cell assay (reference value: 1.45%); assay type: functional
HCT-116 [24] = assay: Induction of apoptosis in human HCT116 cells after 48 hrs by Annexin-V and dead cell assay; assay type: functional, cell-based
HT-29 [25] = assay: Induction of apoptosis in human HT-29 cells assessed as DNA fragmentation at 1 to 10 uM after 48 hrs by ELISA; assay type: functional, cell-based
HCT-116 [26] = assay: Induction of apoptosis in human HCT116 cells assessed as in p53 protein level at 10 uM after 48 hrs by Western blot method relative to beta-actin; assay type: functional
HCT-116 [27] = assay: Induction of apoptosis in human HCT116 cells assessed as p21 protein level at 1 uM after 48 hrs by Western blot method relative to beta-actin; assay type: functional
HCT-116 [28] = assay: Induction of apoptosis in human HCT116 cells assessed as p21 protein level at 2.5 uM after 48 hrs by Western blot method relative to beta-actin; assay type: functional
HCT-116 [29] = assay: Induction of apoptosis in human HCT116 cells assessed as in p21 protein level at 5 uM after 48 hrs by Western blot method relative to beta-actin; assay type: functional
HCT-116 [30] = assay: Induction of apoptosis in human HCT116 cells assessed as p21 protein level at 10 uM after 48 hrs by Western blot method relative to beta-actin; assay type: functional
HCT-116 [31] = assay: Induction of apoptosis in human HCT116 cells assessed as cyclin E protein level at 10 uM after 48 hrs by Western blot method relative to beta-actin; assay type: functional
HCT-116 [32] = assay: Induction of apoptosis in human HCT116 cells assessed as CDK2 protein level at 5 uM after 48 hrs by Western blot method relative to beta-actin; assay type: functional
HCT-116 [33] = assay: Induction of apoptosis in human HCT116 cells assessed as Bcl-2 protein level at 2.5 uM after 48 hrs by Western blot method relative to beta-actin; assay type: functional
HCT-116 [34] = assay: Induction of apoptosis in human HCT116 cells assessed as caspase-3 protein level at 5 uM after 48 hrs by Western blot method relative to beta-actin; assay type: functional
HT-29 [35] = assay: Induction of apoptosis in human HT-29 cells assessed as p21 protein level at 1 uM after 48 hrs by Western blot method relative to beta-actin; assay type: functional
HT-29 [36] = assay: Induction of apoptosis in human HT-29 cells assessed as p21 protein level at 2.5 uM after 48 hrs by Western blot method relative to beta-actin; assay type: functional
HT-29 [37] = assay: Induction of apoptosis in human HT-29 cells assessed as cyclin E protein level at 1 uM after 48 hrs by Western blot method relative to beta-actin; assay type: functional
HT-29 [38] = assay: Induction of apoptosis in human HT-29 cells assessed as cyclin E protein level at 2.5 uM after 48 hrs by Western blot method relative to beta-actin; assay type: functional
HT-29 [39] = assay: Induction of apoptosis in human HT-29 cells assessed as CDK2 protein level at 2.5 uM after 48 hrs by Western blot method relative to beta-actin; assay type: functional
HT-29 [40] = assay: Induction of apoptosis in human HT-29 cells assessed as Bcl-2 protein level at 1 uM after 48 hrs by Western blot method relative to beta-actin; assay type: functional
HT-29 [41] = assay: Induction of apoptosis in human HT-29 cells assessed as Bcl-2 protein level at 5 uM after 48 hrs by Western blot method relative to beta-actin; assay type: functional
HT-29 [42] = assay: Induction of apoptosis in human HT-29 cells assessed as Bcl-2 protein level at 10 uM after 48 hrs by Western blot method relative to beta-actin; assay type: functional

## O=C(OC[C@H]1O[C@@H](OC(=O)c2cc(O)c(O)c(O)c2)[C@H](OC(=O)c2cc(O)c(O)c(O)c2)[C@@H](OC(=O)c2cc(O)c(O)c(O)c2)[C@@H]1OC(=O)c1cc(O)c(O)c(O)c1)c1cc(O)c(O)c(O)c1 [PENTAGALLOYL GLUCOSE]
HCT-116 [1]
  Activity: Active
HT-29 [2]
  Activity: Active
HCT-116 [3]
  Activity: Active
HT-29 [4]
  Activity: Active
HCT-116 [5]
  Activity: Dose-dependent effect
HT-29 [6]
  Activity: Dose-dependent effect
HCT-116 [7]
  Activity: 32.2%
HCT-116 [8]
  Activity: 9.8%
HCT-116 [9]
  Activity: 18.1%
HT-29 [10]
  Activity: 51.3%
HT-29 [11]
  Activity: 47.2%
HT-29 [12]
  Activity: 43.9%
HT-29 [13]
  Activity: 14.3%
HT-29 [14]
  Activity: 14.8%
HT-29 [15]
  Activity: 20.8%
HT-29 [16]
  Activity: 11.7%
HT-29 [17]
  Activity: Dose-dependent effect
HCT-116 [18]
  Activity: 98.25%
HCT-116 [19]
  Activity: 97.55%
HCT-116 [20]
  Activity: 90.45%
HCT-116 [21]
  Activity: 1.35%
HCT-116 [22]
  Activity: 1.85%
HCT-116 [23]
  Activity: 1%
HCT-116 [24]
  Activity: Dose-dependent effect
HT-29 [25]
  Activity: Active
HCT-116 [26]
  fold change (FC): 8.1
HCT-116 [27]
  fold change (FC): 1.3
HCT-116 [28]
  fold change (FC): 1.4
HCT-116 [29]
  fold change (FC): 0.7
HCT-116 [30]
  fold change (FC): 1.6
HCT-116 [31]
  fold change (FC): 0.5
HCT-116 [32]
  fold change (FC): 0.4
HCT-116 [33]
  fold change (FC): 1.8
HCT-116 [34]
  fold change (FC): 309.9
HT-29 [35]
  fold change (FC): 2.4
HT-29 [36]
  fold change (FC): 2.8
HT-29 [37]
  fold change (FC): 1.2
HT-29 [38]
  fold change (FC): 0.9
HT-29 [39]
  fold change (FC): 0.9
HT-29 [40]
  fold change (FC): 0.7
HT-29 [41]
  fold change (FC): 0.4
HT-29 [42]
  fold change (FC): 0.3

— ChEMBL document CHEMBL4118193, “1,2,3,4,6-Penta-O-galloyl-β-d-glucose suppresses colon cancer through induction of tumor suppressor” (Bioorg Med Chem Lett, 2018)
